Source: US20260198493A1, “HYDRAZIDE COMPOUND AND AGRICULTURAL/HORTICULTURAL FUNGICIDE” (Nippon Soda Co., Ltd., priority 2022, published 2026)

What was measured:
Botrytis cinerea [1] = assay type: cell-based; details: 120 h, 25 ppm by volume, Vogel medium, 20° C., five days, dark, read-out: growth inhibition ratio
Colletotrichum acutatum = test: Fungicidal effect test against fungi causing apple anthracnose; details: 96 h, read-out: growth inhibition ratio
Glomerella cingulata = test: Fungicidal effect test against fungi causing grape ripe rot disease; details: Colletotrichum gloeosporioides, 72 h, read-out: growth inhibition ratio
Botrytis cinerea [2] = test: Control test of cucumber gray mold (sprayed young cucumber seedlings); assay type: in vivo; details: 96 h, 25 ppm by mass spray, four days after inoculation
Description: Then, the drug liquid was sprayed onto young cucumber seedlings cultivated in a nursery pot (variety “Jihai”-based, cotyledon stage), and then air-dried. […] They were left still in a moist room at 20° C. Four days after inoculation, leaves of the young cucumber seedlings were visually observed, and the control value was calculated from the lesion area ratio in accordance with the following equation. [formula]

SMILES	inhibition of growth at 25 ppm (Botrytis cinerea [1]) [%]	inhibition of growth at 25 ppm (Colletotrichum acutatum) [%]	inhibition of growth at 25 ppm (Glomerella cingulata) [%]	pest or weed control at 25 ppm (Botrytis cinerea [2]) [%]
CSC(=O)N(Cc1ccc(C)cc1C)NC(=O)c1cc(C)nnc1Oc1cccc(C2CC2)c1F [b-166, S-methyl 2-(3-(3-cyclopropyl-2-fluorophenoxy)-6-methylpyridazine-4-carbonyl)-1-(2,4-dimethylbenzyl)hydrazine-1-carbothioate]	≥ 75	≥ 75	≥ 75	
Cc1cc(C(=O)NN(C=O)Cc2ccc(Cl)cc2Cl)c(Oc2cccc(C3CC3)c2F)nn1 [b-12]	≥ 75	≥ 75	≥ 75	
COC(=O)N(Cc1ccc(C)cc1C)NC(=O)c1c(Oc2cccc(C3CC3)c2F)cncc1C(C)=O [b-221]	≥ 75	≥ 75	≥ 75	
Cc1ccc(CN(NC(=O)c2cc(C)ncc2Oc2cccc(C3CC3)c2F)C(=O)N(C)C)c(C)c1 [b-48]	≥ 75	≥ 75	≥ 75	
COC(=O)N(Cc1ccc(C)cc1C)NC(=O)c1nc(C)nnc1Oc1cccc(C2CC2)c1F [b-115]	≥ 75	≥ 75	≥ 75	≥ 75
COC(=O)N(Cc1ccc(C)cc1C)NC(=O)c1cc(C)nnc1Oc1ccc2ccccc2c1 [b-61]	≥ 75	≥ 75	≥ 75	
COC(=O)N(Cc1ccc(C)cc1C)NC(=O)c1cc(NC(=O)OC(C)(C)C)nnc1Oc1cccc(Cl)c1F [b-218]	≥ 75			
COC(=O)N(Cc1ccc(C)cc1C)NC(=O)c1cc(C)nnc1Oc1cccc(N(C)C)c1 [b-137]		≥ 75	≥ 75	
Cc1ccc(CN(NC(=O)c2cc(C)nnc2Oc2cccc(C3CC3)c2F)C(=O)c2ccccc2)c(C)c1 [b-24]	≥ 75	≥ 75	≥ 75	
COC(=O)N(Cc1ccc(C)cc1C)NC(=O)c1cc(C)nnc1Oc1cccc(SC)c1 [b-136]	≥ 75	≥ 75	≥ 75	
Cc1ccc(CN(C)NC(=O)c2cc(C)nnc2Oc2cccc(C3CC3)c2F)c(C)c1 [b-2]	≥ 75	≥ 75	≥ 75	
COC(=O)N(Cc1sc(Cl)nc1Cl)NC(=O)c1cc(C)nnc1Oc1cccc(C2CC2)c1F [b-120]	≥ 75	≥ 75	≥ 75	
COC(=O)N(Cc1ccc(C)cc1C)NC(=O)c1cc(C)nnc1Oc1cccc(C2CC2)c1F [b-17]	≥ 75	≥ 75	≥ 75	
COC(=O)N(Cc1ccc(C)cc1C)NC(=O)c1cc(C)nnc1Oc1ccc(Cl)cc1F [b-99]	≥ 75			
COC(=O)N(Cc1ccc(C)cc1C)NC(=O)c1cc(C)nnc1Oc1cccc(OC(F)(F)F)c1 [b-133]	≥ 75	≥ 75	≥ 75	
Cc1ccc(CN(NC(=O)c2cc(C)nnc2Oc2cccc(C3CC3)c2F)C(=O)C(C)(C)C)c(C)c1 [b-19]		≥ 75		
COC(=O)N(Cc1ccc(C)cc1C)NC(=O)c1cc2cncn2nc1Oc1cccc(C2CC2)c1 [b-210, Methyl 2-(2-(3-cyclopropylphenoxy)imidazo[1,5-b]pyridazine-3-carbonyl)-1-(2,4-dimethylbenzyl)hydrazine-1-carboxylate]		≥ 75	≥ 75	
Cc1ccc(CN(NC(=O)c2nc(C)ncc2Oc2cccc(C3CC3)c2F)C(=O)N(C)C)c(C)c1 [b-49]		≥ 75	≥ 75	
Cc1cc(C(=O)NN2CCCc3ccccc32)c(Oc2cccc(C3CC3)c2F)nn1 [b-198]			≥ 75	
COC(=O)N(NC(=O)c1cc(C)nnc1Oc1cccc(C2CC2)c1F)C1(c2ccc(Br)cc2)CC1 [b-179]	≥ 75	≥ 75	≥ 75	
COC(=O)N(Cc1ccc(C)cc1C)NC(=O)c1cc(C)nnc1Sc1cccc(C(F)(F)F)c1 [b-78, Methyl 1-(2,4-dimethylbenzyl)-2-(6-methyl-3-((3-(trifluoromethyl)phenyl)thio)pyridazine-4-carbonyl)hydrazine-1-carboxylate]	≥ 75	≥ 75	≥ 75	
COC(=O)N(Cc1ccc(C)cc1C)NC(=O)c1cc(S(C)(=O)=O)ncc1Oc1cccc(C2CC2)c1F [b-193]	≥ 75	≥ 75	≥ 75	
COC(=O)N(Cc1ccc(C)cc1C)NC(=O)c1cc(-c2ccc(F)cc2)ncc1Oc1cccc(C2CC2)c1F [b-185]	≥ 75	≥ 75	≥ 75	

SMILES	inhibition of growth at 25 ppm (Botrytis cinerea [1]) [%]	inhibition of growth at 25 ppm (Colletotrichum acutatum) [%]	inhibition of growth at 25 ppm (Glomerella cingulata) [%]	pest or weed control at 25 ppm (Botrytis cinerea [2]) [%]
COC(=O)N(Cc1ccc(C)cc1C)NC(=O)c1c(C#N)cncc1Oc1cccc(C2CC2)c1F [b-216]		≥ 75	≥ 75	
COC(=O)N(Cc1ccc(C)cc1C)NC(=O)c1cc(C)nnc1Oc1cccc(C(C)C)c1 [b-132]		≥ 75	≥ 75	
COC(=O)N(CCCc1ccc(C)cc1)NC(=O)c1cc(C)nnc1Oc1cccc(C2CC2)c1F [b-89]	≥ 75	≥ 75	≥ 75	
COC(=O)N(Cc1ccc(C)cc1C)N(C)C(=O)c1cc(C)nnc1Oc1cccc(C2CC2)c1F [b-195]	≥ 75	≥ 75	≥ 75	
COc1ccc(CN(NC(=O)c2cc(C)nnc2Oc2cccc(C3CC3)c2F)c2cccc(C)c2)cc1 [b-73]			≥ 75	
Cc1ccc(CN(NC(=O)c2cc(C)nnc2Oc2cccc(C3CC3)c2F)C(=O)C(F)(F)F)c(C)c1 [b-4]	≥ 75	≥ 75	≥ 75	
COC(=O)N(NC(=O)c1cc(C)nnc1Oc1cccc(C2CC2)c1F)c1ccc(C)s1 [b-222]			≥ 75	
COC(=O)N(Cc1ccc(C)cc1C)NC(=O)c1cnncc1Oc1cccc(C2CC2)c1F [b-142, Methyl 2-(5-(3-cyclopropyl-2-fluorophenoxy)pyridazine-4-carbonyl)-1-(2,4-dimethylbenzyl)hydrazine-1-carboxylate]	≥ 75	≥ 75	≥ 75	
COC(=O)N(Cc1ccc(C)cc1C)NC(=O)c1cc(C)nnc1Oc1ccc(Br)cc1F [b-98]	≥ 75			
COC(=O)N(Cc1ccc(C)cc1C)NC(=O)c1nc(C)nnc1Oc1cccc(Br)c1 [b-129]	≥ 75	≥ 75	≥ 75	
COC(=O)N(Cc1ccc(OC)cc1C)NC(=O)c1c(Oc2cccc(C3CC3)c2)cnn(C(C)C)c1=O [b-225]	≥ 75	≥ 75	≥ 75	
CC(=O)N(Cc1ccc(C)cc1C)NC(=O)c1cc(Cl)nnc1Oc1cccc(C(F)(F)F)c1 [b-11]	≥ 75	≥ 75	≥ 75	
Cc1ccc(CN(NC(=O)c2cc(C)nnc2Oc2cccc(C3CC3)c2F)C(=O)N(C)C)c(C)c1 [b-47]		≥ 75	≥ 75	
Cc1ccc(CN(NC(=O)c2cc(C)nnc2Oc2cccc(C3CC3)c2F)C(=O)c2cnn(C)c2)c(C)c1 [b-39]	≥ 75	≥ 75	≥ 75	
COC(=O)N(Cc1cnc2ccccc2c1)NC(=O)c1cc(C)nnc1Oc1cccc(C2CC2)c1F [b-161]		≥ 75	≥ 75	
COC(=O)N(Cc1ccc(O)cc1C)NC(=O)c1cc(C)nnc1Oc1cccc(C2CC2)c1F [b-41]		≥ 75	≥ 75	
COC(=O)N(Cc1ccc(C)cc1C)NC(=O)c1cc(C)nnc1Oc1cccc(C(C)=O)c1 [b-131]		≥ 75	≥ 75	
COC(=O)C(=O)N(Cc1ccc(C)cc1C)NC(=O)c1cc(C)nnc1Oc1cccc(C2CC2)c1F [b-82]	≥ 75	≥ 75	≥ 75	
COC(=O)N(Cc1ccc(C)cc1C)NC(=O)c1cc(C)nnc1Oc1ccc(C2CC2)cc1 [b-54]	≥ 75	≥ 75	≥ 75	
Cc1ccc(CN(NC(=O)c2cc(C)nnc2Oc2cccc(C3CC3)c2F)C(=O)C(=O)N(C)C)c(C)c1 [b-56]		≥ 75	≥ 75	
COC(=O)N(Cc1ccc(C)cc1C)NC(=NO)c1cc(C)nnc1Oc1cccc(C2CC2)c1F [b-63]	≥ 75	≥ 75	≥ 75	
COC(=O)N(Cc1ccc(C)cc1C)NC(=O)c1cc(C)nnc1Oc1ccc2cccnc2c1 [b-97]			≥ 75	
COC(=O)N(Cc1ccc(C)cc1C)NC(=O)c1c(Oc2cccc(Cl)c2F)cncc1Oc1cccc(Cl)c1F [b-203]		≥ 75	≥ 75	
